Where two headings read alike, the source gives them in different places.
Tests used:
[1] = test system: VX-950-resistant variants of HCV; test: IC50 shift of VX-950-resistant variants
genotype 1 HCV = test: PROVE 1 Phase 2b clinical trial: viral response (HCV RNA, Roche COBAS TaqMan assay); assay type: in vivo, human
From the text: Twenty percent of those treated with telaprevir were either Hispanic (10%) or African American (10%). In the control arm, 8% of patients were Hispanic and 12% were African American. […] On average, patients were 49 years old (21-63 years range) with a mean weight of 82.1 kg (46-136 kg range).
The Roche COBAS TaqMan® assay was used to measure HCV RNA (LOD 10 IU/mL). For viral kinetic modeling, values reported as <10 IU/mL were replaced with 5 IU/mL.
Severity of fibrosis was defined by histologic assessment from each center's local pathologist.
The Roche COBAS TaqMan® assay was used to measure HCV RNA (limit of detection 10 IU/mL). For viral kinetic modeling, values reported as <10 IU/mL were replaced with 5 IU/mL.

HCV genotype 1 = test: Phase 1b trial (Study VX04-950-101); settings: subjects infected with HCV genotype 1
[2] = in vivo
replicon = test: Predicted human liver exposure relative to replicon assay IC50/IC90; settings: dose range studied
[3] = design: species or system human; settings: in vivo

CCC[C@H](NC(=O)[C@@H]1[C@H]2CCC[C@H]2CN1C(=O)[C@@H](NC(=O)[C@@H](NC(=O)c1cnccn1)C1CCCCC1)C(C)(C)C)C(=O)C(=O)NC1CC1 [VX-950]
fold increase in IC50 [1]: 7-20 fold | % with SVR (genotype 1 HCV): 62% | % with SVR (genotype 1 HCV; AA (African American)): 44% | % with SVR (genotype 1 HCV; L (Latino)): 65% | antiviral activity (HCV genotype 1): substantial antiviral activity | oral bioavailability [2]: orally bioavailable | predicted average liver concentration, fold of the replicon assay IC90 (replicon): up to 57 fold | pharmacokinetics among the different racial/ethnic groups [3]: No differences

From patent US20120039850A1, “HCV Combination Therapies Comprising Pegylated Interferon, Ribavirin and Telaprevir” (Janssen Pharmaceutica NV, priority 2009, published 2012)
